Literature values, collected in patent US11253518B2, “Methods and compositions for the treatment of hair loss” (Aneira Pharma, Inc., priority 2019, dated 2022).
Converted amounts (≈) assume the structure as drawn. Like-named read-outs stand apart in the source and are kept apart here.

Columns and labels:
hair growth = conditions: for hair growth: McCarey 2004
[1] = system: elevated intraocular pressure; conditions: some human glaucoma patients; Gandolfi 2003
[2] = believed
[3] = system: elevated intraocular pressure; conditions: glaucomatous monkeys; Gagliuso 2004
[4] = not given; remark: listed apart in the source
human FP receptors [5] = molecular target: T1, human FP receptors (Homo sapiens, UniProt P43088)
T1 sequence (P43088 whole entry): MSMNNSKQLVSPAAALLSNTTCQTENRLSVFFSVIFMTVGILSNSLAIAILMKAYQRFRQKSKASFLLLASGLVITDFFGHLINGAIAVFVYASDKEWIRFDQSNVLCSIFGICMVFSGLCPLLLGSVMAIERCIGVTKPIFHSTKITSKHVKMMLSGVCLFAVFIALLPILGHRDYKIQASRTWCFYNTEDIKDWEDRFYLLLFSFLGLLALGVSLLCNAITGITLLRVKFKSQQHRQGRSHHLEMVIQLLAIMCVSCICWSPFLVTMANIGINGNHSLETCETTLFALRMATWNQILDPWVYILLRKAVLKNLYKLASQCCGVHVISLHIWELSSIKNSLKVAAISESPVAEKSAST

human FP receptors [6] = molecular target: T1, human FP receptors; remark: listed apart in the source
[7] = system: production of dihydrotestosterone (DHT); conditions: oral; including prostate gland and scalp

Q: Which “incidence of iris pigmentation and eyelash changes” value (hair growth; 0.15%, two randomized clinical trials) does the source give for `CCCCCCCC(=O)CC[C@@H]1[C@@H](C/C=C\CCCC(=O)OC(C)C)[C@@H](O)C[C@H]1O` [Uenoprostone isopropyl ester, Unoprostone isopropyl ester] here?
A: The value was “Low incidence”.

Q: What about the hair growth (hair growth) of the same molecule?
A: Its hair growth is “no hair growth”.

Q: For `CCNC(=O)CCC/C=C\C[C@@H]1[C@@H](/C=C/[C@@H](O)CCc2ccccc2)[C@H](O)C[C@@H]1O` [bimatoprost, Bimatoprost], which “reduction of elevated intraocular pressure in latanoprost non-responders” value [1] is on record?
A: The value was “responsive”.

Q: What about the “amount converted into bimatoprost free acid” value [2] of the same molecule?
A: Its value is “under 5%”.

Q: And the “effect on intraocular pressure together with latanoprost” value [3]?
A: Its value is “additive”.

Q: Which hair growth (hair growth) does the source give for `CCCCCCCC(=O)CC[C@@H]1[C@@H](C/C=C\CCCC(=O)O)[C@@H](O)C[C@H]1O` [uenoprostone free acid] here?
A: The hair growth was “no hair growth”.

Q: With `CC(C)OC(=O)CCC/C=C\C[C@@H]1[C@@H](CC[C@@H](O)CCc2ccccc2)[C@H](O)C[C@@H]1O` [latanoprost, isopropyl ester of 17-phenyl-13,14-dihydro prostaglandin F2a] as the molecule, how does the “stable for” value (acidic or basic aqueous solutions) read?
A: The value was “no more than 48 hours”.

Q: What about the “stable for” value (neutral aqueous solutions, room temperature) of the same molecule?
A: Its value is “up to one month”.

Q: And the solubility ([4]; 1:4 solution of ethanol:PBS (pH 7.2))?
A: Its solubility is 400 µg/mL (≈ 925 µM).

Q: And the solubility ([4]; PBS (pH 7.2))?
A: Its solubility is “approximately 50 μg/mL”.

Q: And the solubility ([4]; propylene glycol, methanol, ethanol and 2-propanol)?
A: The solubility was no less than 5%.

Q: Which “potency as FP receptor ligand relative to latanoprost” value (human FP receptors [5]) does the source give for `O=C(O)CCC/C=C\C[C@@H]1[C@@H](CC[C@@H](O)CCc2ccccc2)[C@H](O)C[C@@H]1O` [Latanoprost free acid] here?
A: The value was “two-hundred times more potent”.

Q: And the “potency relative to PGF2α” value (human FP receptors [6])?
A: Its value is “twice the potency”.

Q: What about the EC50 (human FP receptors [6]; FP receptor agonist) of the same molecule?
A: Its EC50 is 3.6 nM.

Q: For `CC(C)(C)NC(=O)[C@H]1CC[C@H]2[C@@H]3CC[C@H]4NC(=O)C=C[C@]4(C)[C@H]3CC[C@]12C` [finasteride, (1S,3aS,3bS,5aR,9aR,9bS,11aS)-N-tert-butyl-9a,11a-dimethyl-7-oxo-1,2,3,3a,3b,4,5,5a,6,9b,10,11-dodecahydroindeno[5,4-f]quinoline-1-carboxamide], which “decrease of production of dihydrotestosterone (DHT)” value [7] is on record?
A: The value was “about 70%”.
